Experimental data taken from ChEMBL document CHEMBL3526064, “Sequential metabolism of AMG 487, a novel CXCR3 antagonist, results in formation of quinone reactive metabolites that covalently modify CYP3A4 Cys239 and cause time-dependent inhibition of the enzyme” (Drug Metab Dispos, 2012).

Experiments:
[1] = biological target: T1, Cytochrome P450 3A4 (Homo sapiens, UniProt P08684); assay: Drug metabolism assessed as recombinant CYP3A4 (unknown origin)-compound formation treated with (R)-N-(1-(3-(4-hydroxyphenyl)-4-oxo-3,4-dihydropyrido[2,3-d]pyrimidin-2-yl)ethyl)-N-([2-3H]pyridin-3-ylmethyl)-2-(4-(trifluoromethoxy)phenyl)acetamide preincubated for 5 mins followed NADPH addition measured after 45 mins by TIC mass chromatographic analysis; assay type: ADME; details: recombinant enzyme, 0.75 h
T1 sequence (P08684 whole entry): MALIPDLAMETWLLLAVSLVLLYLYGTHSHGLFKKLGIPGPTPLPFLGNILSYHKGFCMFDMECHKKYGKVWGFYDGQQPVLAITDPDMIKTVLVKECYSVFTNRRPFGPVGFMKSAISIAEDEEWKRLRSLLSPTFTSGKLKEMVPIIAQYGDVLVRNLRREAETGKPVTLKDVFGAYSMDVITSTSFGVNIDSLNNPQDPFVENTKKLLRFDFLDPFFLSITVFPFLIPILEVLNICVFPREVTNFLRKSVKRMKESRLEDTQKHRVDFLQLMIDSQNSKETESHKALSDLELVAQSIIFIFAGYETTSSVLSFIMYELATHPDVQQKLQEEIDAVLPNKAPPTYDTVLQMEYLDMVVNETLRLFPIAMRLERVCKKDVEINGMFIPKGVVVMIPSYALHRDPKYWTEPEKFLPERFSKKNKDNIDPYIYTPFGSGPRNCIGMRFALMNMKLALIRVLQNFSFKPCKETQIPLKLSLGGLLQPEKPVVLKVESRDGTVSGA

[2] = biological target: T1, Cytochrome P450 3A4; assay: Drug metabolism assessed as recombinant CYP3A4 (unknown origin)-mediated compound formation treated with [3H]-(R)-N-(1-(3-(4-hydroxyphenyl)-4-oxo-3,4-dihydropyrido[2,3-d]pyrimidin-2-yl)ethyl)-N-(pyridin-3-ylmethyl)-2-(4-(trifluoromethoxy)phenyl)acetamide preincubated for 5 mins followed NADPH addition measured after 45 mins by TIC mass chromatographic analysis in presence of GSH; assay type: ADME; details: recombinant enzyme, 0.75 h
[3] = biological target: T1, Cytochrome P450 3A4; assay: Inhibition of CYP3A4 in human liver microsomes using midazolam as substrate assessed as unbound inhibitor concentration required for half maximal enzyme inactivation after 2 to 10 mins by LC-MS/MS analysis; assay type: ADME
[4] = biological target: T1, Cytochrome P450 3A4; assay: (§1) Inhibition of CYP3A4 in human liver microsomes using testosterone as substrate assessed as residual enzyme activity after 2 to 10 mins by LC-MS/MS analysis; assay type: ADME
[5] = biological target: T2, CYP3A4 (Homo sapiens, UniProt P08684); assay: as §1; assay type: ADME; details: human, liver microsomes, probe testosterone
T2 sequence (P08684 whole entry): as above

[6] = biological target: T2, CYP3A4; assay: (§2) Ratio of IC50 for CYP3A4 in human liver microsomes using testosterone as substrate preincubated for 30 mins followed by 10-fold dilution and substrate addition to IC50 for CYP3A4 in human liver microsomes using testosterone as substrate preincubated for 30 mins followed by 10-fold dilution and substrate addition in presence of NADPH; details: probe testosterone, read-out: Ratio IC50
[7] = biological target: T1, Cytochrome P450 3A4; assay: Time dependent inhibition of CYP3A4 in human liver microsomes assessed as conversion of midazolam to 1'-hydroxymidazolam at 0.1 to 30 uM by LC-MS/MS analysis; assay type: ADME
[8] = biological target: T1, Cytochrome P450 3A4; assay: Time dependent inhibition of CYP3A4 in human liver microsomes using midazolam as substrate preincubated for 30 mins followed by 10-fold dilution and substrate addition by LC-MS/MS analysis; assay type: ADME
[9] = biological target: T1, Cytochrome P450 3A4; assay: Inactivation of recombinant CYP3A4 (unknown origin) using testosterone as substrate assessed as partition ratio up to 30 uM preincubated for 5 mins followed by dialysis measured after 4 hrs; assay type: ADME; details: recombinant enzyme
[10] = biological target: T1, Cytochrome P450 3A4; assay: Inhibition of CYP3A4 in human liver microsomes using testosterone as substrate assessed as unbound inhibitor concentration required for half maximal enzyme inactivation after 2 to 10 mins by LC-MS/MS analysis; assay type: ADME
[11] = biological target: T1, Cytochrome P450 3A4; assay: Time dependent inhibition of CYP3A4 in human liver microsomes assessed as conversion of testosterone to 6beta-hydroxytestosterone 0.1 to 30 uM by LC-MS/MS analysis; assay type: ADME
[12] = biological target: T1, Cytochrome P450 3A4; assay: Time dependent inhibition of CYP3A4 in human liver microsomes using testosterone as substrate preincubated for 30 mins followed by 10-fold dilution and substrate addition by LC-MS/MS analysis; assay type: ADME
[13] = biological target: T1, Cytochrome P450 3A4; assay: Time dependent inhibition of CYP3A4 in human liver microsomes using midazolam as substrate preincubated for 30 mins followed by 10-fold dilution and substrate addition by LC-MS/MS analysis in presence of NADPH; assay type: ADME
[14] = biological target: T1, Cytochrome P450 3A4; assay: Inactivation of recombinant CYP3A4 (unknown origin) using midazolam as substrate assessed as partition ratio up to 30 uM preincubated for 5 mins followed by dialysis measured after 4 hrs; assay type: ADME; details: recombinant enzyme
[15] = biological target: T1, Cytochrome P450 3A4; assay: Ratio of Kinact to Ki for CYP3A4 in human liver microsomes using midazolam as substrate; assay type: ADME
[16] = biological target: T1, Cytochrome P450 3A4; assay: (§3) Inhibition of CYP3A4 in human liver microsomes using midazolam as substrate assessed as residual enzyme activity after 2 to 10 mins by LC-MS/MS analysis; assay type: ADME
[17] = biological target: T2, CYP3A4; assay: as §3; assay type: ADME; details: human, liver microsomes, probe midazolam
[18] = biological target: T2, CYP3A4; assay: as §2, with “midazolam” for “testosterone”; details: probe midazolam, read-out: Ratio IC50
[19] = biological target: T1, Cytochrome P450 3A4; assay: Time dependent inhibition of CYP3A4 in human liver microsomes using testosterone as substrate preincubated for 30 mins followed by 10-fold dilution and substrate addition by LC-MS/MS analysis in presence of NADPH; assay type: ADME
[20] = biological target: T1, Cytochrome P450 3A4; assay: Ratio of Kinact to Ki for CYP3A4 in human liver microsomes using testosterone as substrate; assay type: ADME
[21] = biological target: T1, Cytochrome P450 3A4; assay: Drug metabolism assessed as recombinant CYP3A4 (unknown origin)-mediated (R)-N-(1-(3-(2,4-dihydroxyphenyl)-4-oxo-3,4-dihydropyrido[2,3-d]pyrimidin-2-yl)ethyl)-N-(pyridin-3-ylmethyl)-2-(4-(trifluoromethoxy)phenyl)acetamide formation preincubated for 5 mins followed NADPH addition measured after 45 mins by TIC mass chromatographic analysis in presence of GSH; assay type: ADME; details: recombinant enzyme, 0.75 h
[22] = biological target: T1, Cytochrome P450 3A4; assay: Drug metabolism assessed as recombinant CYP3A4 (unknown origin)-mediated (R)-N-(1-(3-(3,4-dihydroxyphenyl)-4-oxo-3,4-dihydropyrido[2,3-d]pyrimidin-2-yl)ethyl)-N-(pyridin-3-ylmethyl)-2-(4-(trifluoromethoxy)phenyl)acetamide formation preincubated for 5 mins followed NADPH addition measured after 45 mins by TIC mass chromatographic analysis in presence of GSH; assay type: ADME; details: recombinant enzyme, 0.75 h

With `CC(c1nc2ncccc2c(=O)n1-c1ccc(O)c(SC[C@H](NC(=O)[C@@H](N)CCC(=O)O)C(=O)NCC(=O)O)c1O)N(Cc1cccnc1)C(=O)Cc1ccc(OC(F)(F)F)cc1` (single isomer, unassigned) the Drug metabolism [1] was “metabolite_detected”.
In the case of `C[C@H](c1nc2ncccc2c(=O)n1-c1ccc(O)cc1)N(Cc1ccc[n+]([O-])c1)C(=O)Cc1ccc(OC(F)(F)F)cc1`, the Drug metabolism [2] is reported as “metabolite_detected”.
`C[C@H](c1nc2ncccc2c(=O)n1-c1c(O)cc(O)cc1SC[C@H](NC(=O)[C@@H](N)CCC(=O)O)C(=O)NCC(=O)O)N(Cc1cccnc1)C(=O)Cc1ccc(OC(F)(F)F)cc1` was tested, and the Drug metabolism [1] was “metabolite_detected”.
`C[C@H](c1nc2ncccc2c(=O)n1-c1cc(O)c(O)c(SC[C@H](NC(=O)[C@@H](N)CCC(=O)O)C(=O)NCC(=O)O)c1)N(Cc1cccnc1)C(=O)Cc1ccc(OC(F)(F)F)cc1` was tested, and the Drug metabolism [1] was “metabolite_detected”.
In the case of `C[C@H](c1nc2ncccc2c(=O)n1-c1ccc(O)cc1O)N(Cc1cccnc1)C(=O)Cc1ccc(OC(F)(F)F)cc1`, the Drug metabolism [1] is reported as “metabolite_detected”.
With `C[C@H](c1nc2ncccc2c(=O)n1-c1ccc(O)cc1)N(Cc1cccnc1)C(=O)Cc1ccc(OC(F)(F)F)cc1` the Ki [3] was 730 nM, the Ki [4] was 1900 nM and the kinact [5] was 0.00165 s⁻¹. The IC50 shift at 30 min [6] was 31, the “inhibition (INH)” value [7] was “Active” and the IC50 [8] was 650 nM. For the same molecule, the Ratio [9] was 36, the Ki [10] was 740 nM and the “inhibition (INH)” value [11] was “Active”. For the same molecule, the IC50 [12] was 2100 nM, the IC50 [13] was 27 nM and the Ratio [14] was 36. It also gave a Ratio [15] of 0.12 mL/min/nmol, a Ki [16] of 1900 nM and a kinact [17] of 0.00147 s⁻¹. For the same molecule, the IC50 shift at 30 min [18] was 24, the IC50 [19] was 68 nM and the Ratio [20] was 0.13 mL/min/nmol.
`[3H]c1ncccc1CN(C(=O)Cc1ccc(OC(F)(F)F)cc1)[C@H](C)c1nc2ncccc2c(=O)n1-c1ccc(O)cc1` was tested, and the Drug metabolism [21] was “metabolite_detected” and the Drug metabolism [22] was “metabolite_detected”.
In the case of `C[C@H](c1nc2ncccc2c(=O)n1-c1ccc(O)c(O)c1)N(Cc1cccnc1)C(=O)Cc1ccc(OC(F)(F)F)cc1`, the Drug metabolism [1] is reported as “metabolite_detected”.
With `C[C@H](c1nc2ncccc2c(=O)n1-c1cc(O)c(O)cc1SC[C@H](NC(=O)[C@@H](N)CCC(=O)O)C(=O)NCC(=O)O)N(Cc1cccnc1)C(=O)Cc1ccc(OC(F)(F)F)cc1` the Drug metabolism [1] was “metabolite_detected”.
With `CC(c1nc2ncccc2c(=O)n1-c1ccc(O)c(O)c1SC[C@H](NC(=O)[C@@H](N)CCC(=O)O)C(=O)NCC(=O)O)N(Cc1cccnc1)C(=O)Cc1ccc(OC(F)(F)F)cc1` (single isomer, unassigned) the Drug metabolism [1] was “metabolite_detected”.
With `C[C@H](c1nc2ncccc2c(=O)n1-c1cc(SC[C@H](NC(=O)[C@@H](N)CCC(=O)O)C(=O)NCC(=O)O)c(O)cc1O)N(Cc1cccnc1)C(=O)Cc1ccc(OC(F)(F)F)cc1` the Drug metabolism [1] was “metabolite_detected”.
